Source: patent US5587479A, “Basic derivatives of glutamic acid and aspartic acid as gastrin or cholecystokinin antagonists” (priority 1992, dated 1996)
≈ marks a conversion by molar mass, not a printed value. Read-outs that look alike come from different tables or passages of the source. One block for each compound: values may come before it.

Columns and labels:
guinea-pig ureters = test: Antispastic activity in vitro: spontaneous motility of guinea-pig ureters; conditions: for IC50: Cavia porcellus
Text: The isotonic contractions were detected by means of a force transducer and recorded. […] A given concentration of the product under test was then introduced into the bath and left in contact with the prepared specimen for five minutes, after which the ureter was washed until its own spontaneous activity was re-established.

[1] = molecular target: T1, central CCK-B receptors (guinea pig cortical membrane) (Cavia porcellus, UniProt H0VZC5); test: Inhibition of binding of (3-H)[N-methyl-N-leucine]CCK-8 to guinea pig cortical membranes (anti-CCK-B)
T1 construct: Cerebral cortices of white male guinea pigs were therefore used; from tissue; host or cells: guinea pig cerebral cortex membranes
T1 sequence (H0VZC5 1-426): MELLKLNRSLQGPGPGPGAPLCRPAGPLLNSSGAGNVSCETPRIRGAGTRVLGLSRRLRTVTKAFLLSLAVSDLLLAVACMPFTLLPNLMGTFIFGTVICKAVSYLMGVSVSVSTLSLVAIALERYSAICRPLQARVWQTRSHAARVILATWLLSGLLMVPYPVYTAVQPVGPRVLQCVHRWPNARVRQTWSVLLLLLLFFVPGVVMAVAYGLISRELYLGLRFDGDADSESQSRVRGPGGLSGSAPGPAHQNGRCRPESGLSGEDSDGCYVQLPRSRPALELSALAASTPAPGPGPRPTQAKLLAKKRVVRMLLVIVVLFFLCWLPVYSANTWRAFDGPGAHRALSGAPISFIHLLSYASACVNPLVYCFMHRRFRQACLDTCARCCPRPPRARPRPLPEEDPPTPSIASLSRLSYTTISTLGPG
Protocol: Cerebral cortices of white male guinea pigs were therefore used, according to the method mentioned above, so as to obtain a membrane content/ml corresponding to about 300 mcg of proteins/mi. The membranes were incubated together with the radioactive tracer and the compounds under test for 150 minutes at 25° C. After the supernatant liquid had been discarded, the radioactivity associated with the pellet was determined with a liquid scintillator.

mouse = test: Anxiolytic activity in the mouse, Black and White Box test; assay type: in vivo; conditions: for TOTAL MOV.: five minutes
Protocol: In order to confirm the hypothesis that the potent activity of some of the compounds of the invention against central CCK-B may be correlated with a possible anxiolytic activity, this potential activity was evaluated in the mouse with the use of the "Black and White Box test". This experimental model, which was carried out according to Costall et al. [Pharm. Biochem. Behav. 32 (1989), 777-785] used a box with dimensions of 45×21×21 (h) cm. divided into two compartments which communicated with each other by means of a 13×5 cm hole. The smaller compartment (1/3 of the total area) had black walls, whereas the larger had transparent walls and was illuminated by a lamp which was placed 20 cm above the box and supplied light at 20 W. Under the floor was an activity meter which registered the movements performed by the animal in the individual compartments. The experiment was started by placing the animal in the centre of the illuminated box; as well at its movements, the time which the animal spent in the dark and in the light and the number of times it moved between the 2 compartments were recorded for five minutes. In general, a control animal tended preferably to stay in the dark compartment where it felt better protected from an unusual enviromental situation which put it in a state of anxiety. In this experimental model ( see the reference cited above), a compound having anxiolytic activity decreased the % of movements into the dark in comparison with the total movements, increased the movements between the two light-dark compartments, and increased the % of the total time time spent in the light. The results obtained are given in Table 5 below in which the activities obtained with the compound 1 (the rectus series ) and its enantiomer 2 (sinister) tested in comparison with diazepam and the CCK-B antagonist L365-260.

[2] = frequency of the contractions, five minutes contact, 37° C., read-out: IC50 (frequency), inhibition of the spontaneous motility of guinea-pig ureters in vitro
[3] = force of the contractions, five minutes contact, 37° C., read-out: IC50 (force), inhibition of the spontaneous motility of guinea-pig ureters in vitro
[4] = IC50, inhibition of binding of (3-H)[N-methyl-N-leucine]CCK-8 to the guinea pig cortical membrane, 150 minutes at 25° C.

IC50 (guinea-pig ureters; [2]): 22 µg/mL (≈ 43.8 µM)
Structure (SMILES): CCCCCN(CCCCC)C(=O)C(CCC(=O)NCCN1CCOCC1)NC(=O)c1ccccc1 (stereo not drawn) [Compound 32]

Structure (SMILES): COc1ccc(CCN(C)CCCC(C#N)(c2ccc(OC)c(OC)c2)C(C)C)cc1OC (stereo not drawn) [Verapamil, reference compound]
IC50 (guinea-pig ureters; read-out: IC50 (force), inhibition of the spontaneous motility of guinea-pig ureters in vitro): 3 µg/mL (≈ 6.6 µM) | IC50 (guinea-pig ureters; read-out: IC50 (frequency), inhibition of the spontaneous motility of guinea-pig ureters in vitro): 2.2 µg/mL (≈ 4.84 µM)

Structure (SMILES): CSCC[C@H](NC(=O)[C@H](Cc1c[nH]c2ccccc12)NC(=O)CCNC(=O)OC(C)(C)C)C(=O)N[C@@H](CC(=O)O)C(=O)N[C@@H](Cc1ccccc1)C(N)=O [pentagastrin, reference compound]
IC50 [1]: 0.003 µM

IC50 (guinea-pig ureters; [3]): 18 µg/mL (≈ 32 µM) | IC50 (guinea-pig ureters; [2]): 16 µg/mL (≈ 28.4 µM)
Structure (SMILES): CCCCCN(CCCCC)C(=O)C(CCC(=O)NCCN1CCOCC1)NC(=O)c1ccc(OC)c(OC)c1 (stereo not drawn) [Compound 35]

IC50 (guinea-pig ureters; [3]): 100 µg/mL (≈ 158 µM) | IC50 (guinea-pig ureters; [2]): 100 µg/mL (≈ 158 µM)
Structure (SMILES): CCCCCN(CCCCC)C(=O)C(CCC(=O)NCCCN1CCN(Cc2ccccc2)CC1)NC(=O)c1ccc(C)c(C)c1 (stereo not drawn) [Compound 51]

IC50 (guinea-pig ureters; [3]): 12 µg/mL (≈ 22 µM) | IC50 (guinea-pig ureters; [2]): 15 µg/mL (≈ 27.5 µM)
Structure (SMILES): CCCCCN(CCCCC)C(=O)C(CCC(=O)NCCCN1CCOCC1)NC(=O)c1ccc(C)c(C)c1 (stereo not drawn) [Compound 47]

IC50 [1, 4]: 81.3 µM | IC50 (guinea-pig ureters; [3]): 2 µg/mL (≈ 3.67 µM) | IC50 (guinea-pig ureters; [2]): 1.5 µg/mL (≈ 2.75 µM)
Structure (SMILES): CCCCCN(CCCCC)C(=O)C(CCC(=O)NCCN1CCOCC1)NC(=O)c1ccc(C(C)C)cc1 (stereo not drawn) [Compound 36]
activity on guinea-pig ureters (in words) (guinea-pig ureters): extremely active

IC50 (guinea-pig ureters; [3]): 8 µg/mL (≈ 14 µM) | IC50 (guinea-pig ureters; [2]): 7 µg/mL (≈ 12.2 µM)
Structure (SMILES): CCCCCN(CCCCC)C(=O)C(CCC(=O)NCCN1CCOCC1)NC(=O)c1ccc(Cl)c(Cl)c1 (stereo not drawn) [Compound 37]

IC50 [1, 4]: 65.4 µM | IC50 (guinea-pig ureters; [3]): 5 µg/mL (≈ 9.42 µM) | IC50 (guinea-pig ureters; [2]): 4 µg/mL (≈ 7.54 µM)
Structure (SMILES): CCCCCN(CCCCC)C(=O)C(CCC(=O)NCCN1CCOCC1)NC(=O)c1ccc(C)c(C)c1 (racemic) [Compound 44, (RS) 1-[4'-(ethylenamino)morpholinyl]-1-oxo-4-[(3,4-dimethylbenzoyl)-amino]-5-(dipentylamino) -5-oxopentane]
activity on guinea-pig ureters (in words) (guinea-pig ureters): extremely active

IC50 [1, 4]: 12.5 µM | IC50 (guinea-pig ureters; [2]): 121 µg/mL (≈ 237 µM)
Structure (SMILES): CN(C)CCNC(=O)CC[C@@H](NC(=O)c1cc(Cl)cc(Cl)c1)C(=O)N1CCC2(CCCC2)CC1 [Compound 4]

IC50 (guinea-pig ureters; [3]): 18 µg/mL (≈ 34.8 µM) | IC50 (guinea-pig ureters; [2]): 17 µg/mL (≈ 32.9 µM)
Structure (SMILES): CCCCN(CCCC)C(=O)C(CCC(=O)NCCCN1CCOCC1)NC(=O)c1ccc(C)c(C)c1 (stereo not drawn) [Compound 29]

IC50 (guinea-pig ureters; [3]): 29 µg/mL (≈ 74.1 µM)
Structure (SMILES): Cc1c(-c2ccccc2)oc2c(C(=O)OCCN3CCCCC3)cccc2c1=O [Flavoxate, reference compound]

IC50 (guinea-pig ureters; [3]): 18 µg/mL (≈ 35.8 µM) | IC50 (guinea-pig ureters; [2]): 43 µg/mL (≈ 85.5 µM)
Structure (SMILES): CCCCN(CCCC)C(=O)C(CCC(=O)NCCN1CCOCC1)NC(=O)c1ccc(C)c(C)c1 (stereo not drawn) [Compound 28]

IC50 [1, 4]: 3.3 µM
Structure (SMILES): CN1CCN(CCNC(=O)CC[C@@H](NC(=O)c2cc(Cl)cc(Cl)c2)C(=O)N2CCC3(CCCC3)CC2)CC1 [Compound 6]

Structure (SMILES): Cc1cccc(NC(=O)N[C@@H]2N=C(c3ccccc3)c3ccccc3N(C)C2=O)c1 [Compound L-365-260, reference compound]
LIGHT TIME (%) TOTAL TIME (mouse; 0.01 mg/kg IP): 27.0% | LIGHT TIME (%) TOTAL TIME: % EFF.VS CONTROL (mouse; 0.01 mg/kg IP): 0% | LIGHT-DARK MOVEMENTS (mouse; 0.01 mg/kg IP): 14.2 | LIGHT-DARK MOVEMENTS: % EFF. VS CONTROL (mouse; 0.01 mg/kg IP): -12% | MOV. DARK (%) TOTAL MOV. (mouse; 0.01 mg/kg IP): 57% | MOV. DARK (%) TOTAL MOV.: % EFF. VS CONTROL (mouse; 0.01 mg/kg IP): 12% | TOTAL MOV. (mouse; 0.01 mg/kg IP): 417 | LIGHT TIME (%) TOTAL TIME (mouse; 0.1 mg/kg IP): 31.8% | LIGHT TIME (%) TOTAL TIME: % EFF.VS CONTROL (mouse; 0.1 mg/kg IP): 18% | LIGHT-DARK MOVEMENTS (mouse; 0.1 mg/kg IP): 13.3 | LIGHT-DARK MOVEMENTS: % EFF. VS CONTROL (mouse; 0.1 mg/kg IP): -18% | MOV. DARK (%) TOTAL MOV. (mouse; 0.1 mg/kg IP): 54% | MOV. DARK (%) TOTAL MOV.: % EFF. VS CONTROL (mouse; 0.1 mg/kg IP): 18% | TOTAL MOV. (mouse; 0.1 mg/kg IP): 446 | anxiolytic activity in the Black and White Box test (in words) (mouse; IP): active at a dose of 0.1 mg/kg but only for the parameter which relates to the increase in the time spent in the light

IC50 (guinea-pig ureters; [3]): 1.6 µg/mL (≈ 3.01 µM) | IC50 (guinea-pig ureters; [2]): 1.5 µg/mL (≈ 2.83 µM)
Structure (SMILES): CCCCCN(CCCCC)C(=O)[C@H](CCC(=O)NCCN1CCOCC1)NC(=O)c1ccc(C)c(C)c1 [Compound 46]
activity on guinea-pig ureters (in words) (guinea-pig ureters): extremely active | activity relative to Verapamil (guinea-pig ureters; guinea-pig ureters): about twice | times more active than Papaverine and Flavexate (guinea-pig ureters; guinea-pig ureters): about 20 times
